We go through 2 compounds from US20020077328A1, “Selective cyclooxygenase-2 inhibitors and vasomodulator compounds for generalized pain and headache pain” (priority 2000, published 2002).

The nature of this data set: Solubility of celecoxib and valdecoxib in various solvent liquids. The data set is classed as physicochemical. As to the method:
Aliquots of a solvent liquid were then added dropwise in approximately 100 mg increments to the solid sample. The resulting mixture was vortexed and/or sonicated between aliquot additions. […] Solubility values preceded by the < symbol denote that, at the particular concentration shown, the mixture was still cloudy, i.e., not all of the drug was fully in dissolved form.

The mark [1] stands for this setting: Labrasol ™ /DGME/propylene glycol laurate 40:40:20 w/w.
Where [2] appears, read: Polyethylene glycol 400/water 1:1 w/w.
Where [3] appears, read: Polyethylene glycol 400/water 2:1 w/w.
Setting [4] is: Propylene glycol laurate/Labrasol ™ 1:1 w/w.
The mark [5] stands for this setting: Tagat ™ TO/Capmul ™ MCM 1:1 w/w.

Regarding `Cc1ccc(-c2cc(C(F)(F)F)nn2-c2ccc(S(N)(=O)=O)cc2)cc1` [celecoxib], the Solubility is 13 mg/g (Arlacel ™ 186); 19 − 21 mg/g (Capmul ™ MCM); 36 mg/g (Cremophor ™ EL); 3 mg/g (DGME/water 1:1 w/w); 42 mg/g (DGME/water 2:1 w/w); 25 mg/g (Ethyl caprylate). Besides, the Solubility is, setting by setting: (Labrasol ™) 64 mg/g; (Labrasol ™ /DGME 1:1 w/w) 335 mg/g; (Labrasol ™ /DGME/propylene glycol laurate 35:35:30 w/w) 266 mg/g; under setting [1], 288 − 297 mg/g; (Labrasol ™ /DGME/propylene glycol laurate 45:45:10 w/w) 313 − 325 mg/g; (Miglyol ™ 812) 6 − 12 mg/g. Also, the Solubility reads like this: (Polyethylene glycol 400) 304 mg/g; under setting [2], <1 mg/g; under setting [3], 6 mg/g; (Polysorbate 80) 73 mg/g; (Propylene glycol) 23 − 41 mg/g; (Propylene glycol laurate) 18 mg/g. The Solubility is listed as 58 mg/g under setting [4]; 212 mg/g (Tagat ™ /Capmul ™ MCM/DGME 35:35:30 w/w); 274 mg/g (Tagat ™ /Capmul ™ MCM/DGME 58:12:30 w/w); 24 − 40 mg/g (Tagat ™ TO); 34 − 52 mg/g under setting [5]; 188 mg/g (Tetraethylene glycol dimethyl ether). This compound returned a Solubility (Triethylene glycol monoethyl ether) of 170 mg/g.

Consider `Cc1onc(-c2ccccc2)c1-c1ccc(S(N)(=O)=O)cc1` [valdecoxib], for which the “Advantage in solubility for DGME over propylene glycol” value is given as “approximately tenfold”. This compound registered a Solubility (Capmul ™ MCM) of 13 mg/g. The Solubility (DGME/water 1:1 w/w) worked out at 6 mg/g. The compound further had a Solubility (DGME/water 2:1 w/w) of 32 mg/g. This compound had a Solubility (Diethylene glycol monoethyl ether (DGME)) of 120 mg/g. The compound also returned a Solubility (Labrasol ™) of 34 mg/g. This compound had a Solubility under setting [1] of 130 mg/g. The Solubility (Polyethylene glycol 400) is listed as 50 − 85 mg/g. Moreover, the Solubility under setting [2] is 1 mg/g. The same compound displayed a Solubility under setting [3] of 13 mg/g. In addition, under “Propylene glycol”, the Solubility is 10 − 20 mg/g. The compound further yielded a Solubility (Propylene glycol laurate) of 22 mg/g. For the same compound, the Solubility under setting [4] is 42 mg/g. The Solubility (Tagat ™ TO) was 23 mg/g. The same compound returned a Solubility under setting [5] of 24 mg/g.
